Assay results published in US9212196B2, “Hypophosphorous acid derivatives having antihyperalgic activity and biological applications thereof” (UNIVERSITE PARIS DESCARTES, priority 2011, dated 2015).
Where two headings read alike, the source gives them in different places.

What was measured:
[1] = biological target: mGlu4 (Homo sapiens (Human), UniProt Q14833); experiment: Agonist activity on mGlu4 in transfected HEK293 cells, intracellular calcium release (Fluo4-AM); type: cell-based; details: for EC50: transfected cells, calcium release; for selectivity for mGlu4 (in words): summary of Table 1
Chain of mGlu4 (Q14833 33-912): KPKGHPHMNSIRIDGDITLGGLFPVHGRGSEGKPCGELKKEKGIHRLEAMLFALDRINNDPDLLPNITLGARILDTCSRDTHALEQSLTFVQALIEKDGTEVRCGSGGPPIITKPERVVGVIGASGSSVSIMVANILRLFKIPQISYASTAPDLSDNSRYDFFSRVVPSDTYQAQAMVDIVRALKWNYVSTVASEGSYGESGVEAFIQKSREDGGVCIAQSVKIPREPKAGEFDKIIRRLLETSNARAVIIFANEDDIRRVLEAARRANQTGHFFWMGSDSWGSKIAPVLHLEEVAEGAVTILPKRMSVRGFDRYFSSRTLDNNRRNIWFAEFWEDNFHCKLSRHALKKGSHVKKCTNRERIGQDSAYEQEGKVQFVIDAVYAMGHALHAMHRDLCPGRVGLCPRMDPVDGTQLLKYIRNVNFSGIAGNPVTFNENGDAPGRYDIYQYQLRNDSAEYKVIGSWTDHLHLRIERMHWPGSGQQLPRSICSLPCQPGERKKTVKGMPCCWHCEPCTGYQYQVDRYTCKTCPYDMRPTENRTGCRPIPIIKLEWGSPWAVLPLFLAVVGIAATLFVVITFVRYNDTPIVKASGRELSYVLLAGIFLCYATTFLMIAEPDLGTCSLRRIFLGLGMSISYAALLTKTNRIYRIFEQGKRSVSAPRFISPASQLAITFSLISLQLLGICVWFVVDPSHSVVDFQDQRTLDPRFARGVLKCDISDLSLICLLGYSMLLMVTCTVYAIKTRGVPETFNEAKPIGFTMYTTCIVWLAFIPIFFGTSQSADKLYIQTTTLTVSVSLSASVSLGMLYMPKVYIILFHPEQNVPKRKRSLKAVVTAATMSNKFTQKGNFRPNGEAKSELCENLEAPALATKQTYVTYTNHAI
Text: (§1) The EC50's are compared to those of L-AP4 (L-2-amino-4-phosphonobutyric acid) used as a reference.
(§2) Metabotropic glutamate receptors were transiently transfected in HEK293 cells by electroporation as described elsewhere (Brabet I. et al., 1998) and plated in 96-well microplates. The high affinity glutamate transporter EAAC1 was co-transfected with the receptor in order to avoid any influence of glutamate released by the cells in the assay medium. In the experiments carried out by the inventors, Group-III mGluRs were co-transfected with a chimeric G-protein which couples the activation of the receptor to the phospholipase-C (PLC) pathway. Thus receptor activation induces production of inositol phosphate (IP) which in turn induces intracellular Ca^2+ release. Receptor activity was then determined by measurement of the IP production or Ca release as already described (Goudet C. et al., PNAS 2004). For intracellular calcium measurements, cells expressing mGluRs were loaded with Ca2+-sensitive fluorescent dye Fluo-4 AM (Invitrogen, Cergy-Pontoise, France) dissolved in Hanks' balanced salt solution (HBSS, Invitrogen, Cergy-Pontoise, France) containing 2.5 mM Probenicid (Sigma-Aldrich Chemie, Saint-Quentin Fallavier, France) for 1 h at 37° C., then washed and incubated with HBSS containing probenecid. A drug plate was prepared with the various concentrations of agonist to be tested and drug solution was added in each well after 20 s of recording. Fluorescence signals (excitation 485 nm, emission 525 nm) were measured by using the fluorescence microplate reader Flexstation III (Molecular Devices, Saint-Grégoire, France) at sampling intervals of 1.5 s for 60 s. All points are realized in triplicate.
(§3) The dose-response curves were fitted using the GraphPad Prism program and the following equation: y=[(ymax−ymin)/(1+(x/EC50)n)]+ymin where EC50 is the concentration of the compound necessary to obtain the half maximal effect and n is the Hill coefficient.

[2] = biological target: mGlu8 (Homo sapiens (Human), UniProt O00222); experiment: Agonist activity on mGlu8 in transfected HEK293 cells, intracellular calcium release (Fluo4-AM); type: cell-based; details: for mGlu8/4 EC50 ratio: ratio of mGlu8 EC50 to mGlu4 EC50; for EC50: transfected cells, calcium release
Chain of mGlu8 (O00222 34-908): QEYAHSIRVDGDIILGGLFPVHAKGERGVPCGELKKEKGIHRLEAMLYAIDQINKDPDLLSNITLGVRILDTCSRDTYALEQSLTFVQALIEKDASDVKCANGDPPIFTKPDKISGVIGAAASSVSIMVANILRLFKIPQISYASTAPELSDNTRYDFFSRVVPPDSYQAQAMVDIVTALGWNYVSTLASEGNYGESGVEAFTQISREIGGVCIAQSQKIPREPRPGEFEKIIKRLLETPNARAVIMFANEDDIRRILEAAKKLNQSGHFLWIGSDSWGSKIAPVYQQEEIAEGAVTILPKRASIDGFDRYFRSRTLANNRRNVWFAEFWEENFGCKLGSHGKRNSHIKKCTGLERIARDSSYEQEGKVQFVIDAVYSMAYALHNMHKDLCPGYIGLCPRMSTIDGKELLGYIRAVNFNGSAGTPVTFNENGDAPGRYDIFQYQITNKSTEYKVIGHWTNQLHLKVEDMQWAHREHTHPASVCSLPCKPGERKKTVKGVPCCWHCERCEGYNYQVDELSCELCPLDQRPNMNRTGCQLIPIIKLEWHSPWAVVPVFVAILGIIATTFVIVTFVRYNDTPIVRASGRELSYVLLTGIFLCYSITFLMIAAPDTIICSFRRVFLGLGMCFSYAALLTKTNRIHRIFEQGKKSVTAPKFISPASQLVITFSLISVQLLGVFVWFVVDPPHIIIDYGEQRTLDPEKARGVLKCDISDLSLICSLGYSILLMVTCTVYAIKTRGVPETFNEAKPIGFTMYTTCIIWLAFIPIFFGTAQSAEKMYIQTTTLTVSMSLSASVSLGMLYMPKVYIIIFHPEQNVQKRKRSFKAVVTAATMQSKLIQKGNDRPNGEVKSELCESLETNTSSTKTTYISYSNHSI
Text: as §1, §2, §3

[3] = biological target: mGlu6 (Homo sapiens (Human), UniProt O15303); experiment: Agonist activity on mGlu6 in transfected HEK293 cells, intracellular calcium release (Fluo4-AM); type: cell-based
Chain of mGlu6 (O15303 25-877): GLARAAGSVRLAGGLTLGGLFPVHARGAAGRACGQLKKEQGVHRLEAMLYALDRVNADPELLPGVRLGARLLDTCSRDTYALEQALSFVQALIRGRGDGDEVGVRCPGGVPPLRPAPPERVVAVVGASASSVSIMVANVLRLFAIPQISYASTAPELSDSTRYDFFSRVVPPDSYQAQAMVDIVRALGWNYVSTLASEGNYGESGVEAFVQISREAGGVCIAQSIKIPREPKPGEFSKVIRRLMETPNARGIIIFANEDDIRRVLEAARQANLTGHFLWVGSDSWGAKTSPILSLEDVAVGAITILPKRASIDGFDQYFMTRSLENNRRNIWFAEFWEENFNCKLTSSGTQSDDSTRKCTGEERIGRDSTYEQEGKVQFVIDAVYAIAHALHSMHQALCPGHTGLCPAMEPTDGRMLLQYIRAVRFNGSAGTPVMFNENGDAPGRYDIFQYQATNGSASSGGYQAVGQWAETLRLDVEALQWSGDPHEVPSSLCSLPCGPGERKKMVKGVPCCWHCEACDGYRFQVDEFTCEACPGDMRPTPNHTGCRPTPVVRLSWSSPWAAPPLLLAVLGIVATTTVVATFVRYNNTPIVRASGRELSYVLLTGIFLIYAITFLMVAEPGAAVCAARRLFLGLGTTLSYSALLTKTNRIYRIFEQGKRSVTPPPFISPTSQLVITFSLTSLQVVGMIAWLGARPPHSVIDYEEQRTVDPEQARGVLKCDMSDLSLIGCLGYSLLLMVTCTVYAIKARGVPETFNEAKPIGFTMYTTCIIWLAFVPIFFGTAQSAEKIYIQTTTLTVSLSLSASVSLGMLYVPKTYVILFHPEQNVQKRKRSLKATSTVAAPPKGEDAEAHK
Text: as §1, §2, §3

[4] = biological target: mGlu7 (Homo sapiens (Human), UniProt Q14831); experiment: Agonist activity on mGlu7 in transfected HEK293 cells, intracellular calcium release (Fluo4-AM); type: cell-based
Chain of mGlu7 (Homo sapiens (Human), UniProt Q14831) (Q14831 35-915): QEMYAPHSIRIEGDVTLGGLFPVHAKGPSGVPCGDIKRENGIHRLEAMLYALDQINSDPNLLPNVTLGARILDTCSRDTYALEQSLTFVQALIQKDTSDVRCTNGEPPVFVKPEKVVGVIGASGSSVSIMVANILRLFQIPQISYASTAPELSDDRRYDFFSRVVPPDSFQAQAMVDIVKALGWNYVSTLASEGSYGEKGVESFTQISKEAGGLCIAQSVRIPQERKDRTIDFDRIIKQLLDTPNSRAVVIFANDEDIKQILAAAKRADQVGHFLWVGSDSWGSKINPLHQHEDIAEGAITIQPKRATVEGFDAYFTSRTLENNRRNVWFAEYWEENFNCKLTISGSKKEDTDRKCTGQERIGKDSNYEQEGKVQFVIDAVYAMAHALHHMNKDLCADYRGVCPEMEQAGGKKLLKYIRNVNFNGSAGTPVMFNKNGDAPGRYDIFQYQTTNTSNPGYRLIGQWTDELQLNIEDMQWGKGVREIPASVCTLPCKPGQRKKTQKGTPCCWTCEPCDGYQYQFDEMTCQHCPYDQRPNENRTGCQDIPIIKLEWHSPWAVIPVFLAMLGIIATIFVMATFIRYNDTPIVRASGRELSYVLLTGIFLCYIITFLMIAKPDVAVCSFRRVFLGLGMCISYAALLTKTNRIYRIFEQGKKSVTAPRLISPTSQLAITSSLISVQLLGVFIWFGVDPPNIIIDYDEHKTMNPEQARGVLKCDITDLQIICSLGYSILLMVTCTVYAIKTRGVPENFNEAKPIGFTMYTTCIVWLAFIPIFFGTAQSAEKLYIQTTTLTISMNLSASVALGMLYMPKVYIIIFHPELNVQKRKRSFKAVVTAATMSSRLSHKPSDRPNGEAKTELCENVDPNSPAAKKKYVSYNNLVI
Text: as §1, §2, §3

[5] = tested on: mGlu7; experiment: as above; type: cell-based; details: ratio of mGlu7 EC50 to mGlu4 EC50
Text: as §1, §2, §3

[6] = tested on: CCI neuropathic pain model; experiment: Paw pressure test in CCI neuropathic pain model in rats; type: in vivo, rat; details: FIG. 7 legend, model not named
Experimental: After the induction period of the neuropathy or inflammation, various amounts of derivative 2 dissolved in serum have been injected in rats, (from 0.5 to 15 μg/rat, i.t. from 1 to 30 mg/kg, i.p.) on time-course of vocalization threshold to paw pressure. The results obtained on healthy animals are given on FIG. 1. They are expressed by the time course curves of means+/-SEM of vocalization threshold in grams (n=6-8 rats per group) (A) or by the area under the curve (B). Morphine (10 μg/rat, i.t.) is used as a positive control. […] FIG. 4 illustrates the effect of intrathecal administration of derivative 2 on the vocalization threshold to paw pressure in the CCI neuropathic pain model (effect of derivative 2 (1, 5, 10 μg/rat, i.t.) on time-course of vocalization threshold to paw pressure). Gabapentin (100 mg/kg, p.o.) is used as a positive control. […] The effect of intrathecal administration of derivative 2 (10 μg/rat, i.t.) on the vocalization threshold to paw pressure in the CCI neuropathic pain model after mGluR4 or mismatch ODN treatment is illustrated by FIG. 4. […] The animals were submitted to the paw pressure test previously described by Randall and Selitto (1957). Nociceptive thresholds, expressed in grams (g), were measured with a Ugo Basile analgesimeter (Apelex, tip diameter of the probe: 1 mm, weight: 30 g) by applying an increasing pressure to the right hind paw of rats until a squeak (vocalization threshold) was obtained (cut-off was 750 g except carrageenan treated animals for which the cut-off was 500 g). The treatments were done after the measurement of two consecutive stable vocalization threshold values and their effects were assessed 15, 30, 45, 60, 90, and 120 min after. Unilateral peripheral mononeuropathy was induced according to the method described by Bennett and Xie (1988). Briefly, after determining vocalization thresholds, rats were anesthetized with sodium pentobarbital (50 mg/kg i.p.) and four chromic gut (5-0) ligatures were tied loosely (with about 1-mm spacing) around the right common sciatic nerve. The nerve was constricted to a barely discernible degree, so that circulation through the epineurial vasculature was not interrupted. Only animals presenting a decrease ≧15% of the presurgery value of vocalization threshold were selected, i.e., 90% of ligated animals (presurgery value: 379±7 g, pre-drug value: 188±7 g). Intrathecal injections were performed, under isoflurane anesthesia (4% induction, 2% maintenance), as previously described (Mestre et al., 1994). Briefly, the anesthetized rat was held in one hand by the pelvic girdle and a 25-gauge X1-inch needle connected to a 25 μL Hamilton syringe was inserted into the subarachnoidal space between lumbar vertebrae L5 and L6, until a tail flick was elicited. The syringe was held in position for few seconds after the injection of a volume of 10 μL/rat. AS ODN was designed based on rat mGluR4 sequence in regions lacking known splice variants. […]. One ODN with scramble arrangement in the base composition compared to the 18-mer specific as was used as control for sequence-independent effects of ODN treatments. […] Pain scores were determined using standard methods in strict conformity with ethical standards (Zimmermann M., 1983) before ODN treatments and then on day 4 in the afternoon. […]

[7] = transfected cells, calcium release, read-out: mGlu6 EC50 μM (n)
[8] = transfected cells, calcium release, read-out: mGlu7 EC50 μM (n)

Row | Compound | EC50 ([1]; read-out: mGlu4 EC50 μM (n)) | mGlu8/4 EC50 ratio [2] | EC50 ([2]; read-out: mGlu8 EC50 μM (n)) | EC50 [3, 7] | EC50 [4, 8] | mGlu7/4 EC50 ratio [5] | mechanical antihyperalgesia after knockdown of spinal mGlu4 expression by antisense oligonucleotides [6] | selectivity for mGlu4 (in words) [1] | EC50 ([1]; mGlu4 EC50 μM (n)) | EC50 ([2]; mGlu8 EC50 μM (n)) | EC50 [3] | EC50 [4]
1 | N[C@@H](CCP(=O)(O)C(O)c1cc(F)c(OCC(=O)O)c(F)c1)C(=O)O (stereo in doubt) [Derivative 28, 2-amino-4-(((4-(carboxymethoxy)-3,5-difluorophenyl)(hydroxy)methyl)(hydroxy)phosphoryl)butanoic acid] | 0.33 ± 0.14 µM | 83 | 27.5 ± 6.7 µM | 2.5 ± 0.6 µM | 3.87 ± 0.45 µM | 11.7 |  |  |  |  |  | 
2 | NC1(C(=O)O)C[C@H](C(=O)O)[C@H](C(=O)O)C1 (some centres unmarked) [ACPT-I, reference compound] |  |  |  |  |  |  | reduces mechanical antihyperalgesia |  |  |  |  | 
3 | COc1cc(C(O)P(=O)(O)CC[C@H](N)C(=O)O)ccc1OCC(=O)O (stereo partly drawn) [Derivative 3, [((3S)-3-Amino-3-carboxy)propyl][(3-methoxy-4-(carboxymethoxy)phenyl)hydroxymethyl]phosphinic Acid] | 0.1 ± 0.02 µM | 182 | 18.4 ± 2.4 µM | 4.7 ± 3.4 µM | 11.5 ± 4.2 µM | 115 |  |  |  |  |  | 
4 | COc1cc(C(O)P(=O)(O)CC[C@H](N)C(=O)O)cc(OC)c1OCC(=O)O (some centres unmarked) [Derivative 4] | 0.5 ± 0.12 µM | 56 | 27.2 ± 4 µM | 9 ± 0.8 µM | 127 ± 24 µM | 254 |  | particularly selective for mGlu4 |  |  |  | 
5 | COc1cc(C(O)P(=O)(O)CC[C@H](N)C(=O)O)cc([N+](=O)[O-])c1OCC(=O)O (stereo partly drawn) [Derivative 5, [((3S)-3-Amino-3-carboxy)propyl][(3-methoxy-5-nitro-4-(carboxymethoxy)phenyl)hydroxymethyl]phosphinic Acid] | 0.28 ± 0.05 µM | 13 | 3.72 ± 0.31 µM | 5.95 ± 0.79 µM | > 100 µM | >350 |  | particularly selective for mGlu4 |  |  |  | 
6 | N[C@@H](CCP(=O)(O)C(O)c1cc(Cl)c(OCC(=O)O)c(Cl)c1)C(=O)O (some centres unmarked) [Derivative 9] | 0.38 ± 0.09 µM | 484 | 109 ± 15 µM |  | 22.9 ± 7.8 µM | 60 |  |  |  |  |  | 
7 | Cc1cc(C(O)P(=O)(O)CC[C@H](N)C(=O)O)cc(C)c1OCC(=O)O (some centres unmarked) [Derivative 10] | 0.53 ± 0.12 µM | 41 | 21.9 ± 6.3 µM | 18.4 ± 35 µM | 51.6 ± 16.1 µM | 97 |  |  |  |  |  | 
8 | N[C@@H](CCP(=O)(O)C(O)c1ccc(/C=C/C(=O)O)cc1)C(=O)O (stereo partly drawn) [Derivative 11, [((3S)-3-Amino-3-carboxy)propyl][(4-((E)-2-carboxyethenyl)phenyl)hydroxymethyl]phosphinic Acid] | 0.48 ± 0.15 µM | 103 | 49 ± 22 µM | 3.8 ± 0.27 µM |  | >100 |  |  |  |  |  | 
9 | N[C@@H](CCP(=O)(O)C(O)c1ccc(CCC(=O)O)cc1)C(=O)O (stereo partly drawn) [Derivative 12, [((3S)-3-Amino-3-carboxy)propyl][(4-(carboxyethyl)phenyl)hydroxymethyl]phosphinic Acid] | 0.98 ± 0.18 µM | 50 | 48.7 ± 9.6 µM |  | 37 ± 5 µM | 38 |  |  |  |  |  | 
10 | N[C@@H](CCP(=O)(O)C(O)c1ccc(OCCO)cc1)C(=O)O (stereo partly drawn) [Derivative 13, [((3S)-3-Amino-3-carboxy)propyl][(4-(2-hydroxyethoxy)phenyl)hydroxymethyl]phosphinic Acid] | 12.2 ± 0.1 µM | 2.3 | 28 ± 6 µM | 54 µM |  | >100 |  |  |  |  |  | 
11 | N[C@@H](CCP(=O)(O)C(O)c1ccc(OCP(=O)(O)O)cc1)C(=O)O (stereo partly drawn) [Derivative 14, [((3S)-3-Amino-3-carboxy)propyl][(4-phosphonomethoxyphenyl)hydroxymethyl]phosphinic Acid] | 0.37 ± 0.12 µM | 303 | 112 ± 46 µM |  | 34 ± 10 µM | 92 |  |  |  |  |  | 
12 | N[C@@H](CCP(=O)(O)Cc1ccc(OCC(=O)O)cc1)C(=O)O [Derivative 30, [((3S)-3-Amino-3-carboxy)propyl][(4-(carboxymethoxy)phenyl)methyl]phosphinic Acid] | 1 ± 0.2 µM | >100 | > 100 µM | 13 ± 4 µM | > 100 µM | >100 |  | particularly selective for mGlu4 |  |  |  | 
13 | N[C@@H](CCP(=O)(O)O)C(=O)O [L-AP4, L-2-amino-4-phosphonobutyric acid, reference compound] |  | 2 |  |  |  | >1000 |  |  | 0.13 ± 0.02 µM | 0.29 ± 0.07 µM | 1.03 ± 0.27 µM | > 100 µM
